The experiment addresses ROCK2 (Homo sapiens (Human), UniProt O75116). As to the kind of experiment: ROCK2 assay (peptide phosphorylation, LABCHIP 3000 Reader). The format is biochemical. The conditions noted are these: 5 μM ATP, 1.5 μM peptide substrate. Summed up: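 Human ROCK2 reaction in 20 mM HEPES pH 7.5, 20 mM MgCl2, 0.015% Brij-35, 4 mM DTT, with 5 μM ATP and 1.5 μM FITC-labelled peptide, DMSO <2%. Stopped with EDTA; phosphorylated and unphosphorylated peptide separated by microfluidic mobility shift. IC50 from dose-response curve fit.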
Sequence of ROCK2 (O75116 whole entry, species assumed): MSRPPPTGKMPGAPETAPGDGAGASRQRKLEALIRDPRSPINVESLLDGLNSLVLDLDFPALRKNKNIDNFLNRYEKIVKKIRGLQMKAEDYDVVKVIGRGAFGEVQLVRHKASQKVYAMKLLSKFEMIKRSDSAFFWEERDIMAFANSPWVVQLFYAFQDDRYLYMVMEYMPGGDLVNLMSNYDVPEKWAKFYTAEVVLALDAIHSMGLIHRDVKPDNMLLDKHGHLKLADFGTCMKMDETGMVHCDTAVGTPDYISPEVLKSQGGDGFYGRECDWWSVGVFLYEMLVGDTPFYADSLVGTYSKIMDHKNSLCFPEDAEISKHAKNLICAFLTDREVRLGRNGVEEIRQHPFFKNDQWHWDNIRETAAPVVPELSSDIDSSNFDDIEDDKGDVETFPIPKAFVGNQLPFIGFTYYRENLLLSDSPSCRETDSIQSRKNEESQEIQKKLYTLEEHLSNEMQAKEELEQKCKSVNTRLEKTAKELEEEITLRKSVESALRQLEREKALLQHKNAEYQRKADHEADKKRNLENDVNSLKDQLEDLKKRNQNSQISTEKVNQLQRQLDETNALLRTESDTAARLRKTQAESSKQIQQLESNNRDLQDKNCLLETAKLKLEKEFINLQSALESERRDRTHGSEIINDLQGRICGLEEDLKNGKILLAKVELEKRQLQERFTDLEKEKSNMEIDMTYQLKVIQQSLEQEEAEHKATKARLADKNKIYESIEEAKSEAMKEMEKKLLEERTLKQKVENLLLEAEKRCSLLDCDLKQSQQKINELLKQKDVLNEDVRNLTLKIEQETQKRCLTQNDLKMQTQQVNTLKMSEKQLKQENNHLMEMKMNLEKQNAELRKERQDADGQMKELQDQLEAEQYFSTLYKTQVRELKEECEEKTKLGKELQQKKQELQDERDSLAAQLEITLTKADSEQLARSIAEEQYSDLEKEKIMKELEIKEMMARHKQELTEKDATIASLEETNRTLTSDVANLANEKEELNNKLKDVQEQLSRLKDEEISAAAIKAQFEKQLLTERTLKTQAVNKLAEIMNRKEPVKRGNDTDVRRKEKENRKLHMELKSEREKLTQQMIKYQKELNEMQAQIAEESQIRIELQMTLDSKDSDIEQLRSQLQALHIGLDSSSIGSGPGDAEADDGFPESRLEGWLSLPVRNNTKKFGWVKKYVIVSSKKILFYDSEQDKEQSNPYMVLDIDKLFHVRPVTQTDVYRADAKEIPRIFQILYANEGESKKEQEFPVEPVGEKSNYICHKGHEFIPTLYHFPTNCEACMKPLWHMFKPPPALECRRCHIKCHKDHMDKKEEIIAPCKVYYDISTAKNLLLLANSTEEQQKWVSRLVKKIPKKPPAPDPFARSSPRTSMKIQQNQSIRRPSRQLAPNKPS
One may read the IC50 as the midpoint of a concentration-inhibition curve. A lower IC50 goes with higher potency. For the molecule `Cc1nn(-c2ccc(-c3cn[nH]c3)cc2)c(=O)n1Cc1c(F)cccc1F` [Example 104, 1-(4-(1H-pyrazol-4-yl)phenyl)-4-(2,6-difluorobenzyl)-3-methyl-1H-1,2,4-triazol-5(4H)-one], the IC50 was 50 to 250 nM.
On to `CCc1cc(-n2nc(C)n(Cc3cccc(OC)c3)c2=O)ccc1-c1cn[nH]c1` [Example 105, 1-(3-ethyl-4-(1H-pyrazol-4-yl)phenyl)-4-(3-methoxybenzyl)-3-methyl-1H-1,2,4-triazol-5(4H)-one], for which the IC50 fell in the range of 5 to 50 nM.
To `CCc1cc(-n2nc(C)n(Cc3cccc(F)c3)c2=O)ccc1-c1cn[nH]c1` [Example 106, 1-(3-ethyl-4-(1H-pyrazol-4-yl)phenyl)-4-(3-fluorobenzyl)-3-methyl-1H-1,2,4-triazol-5(4H)-one] belongs 5 to 50 nM.
With `CCc1cc(-n2nc(C)n(Cc3cc(F)ccc3F)c2=O)ccc1-c1cn[nH]c1` [Example 107, 4-(2,5-difluorobenzyl)-1-(3-ethyl-4-(1H-pyrazol-4-yl)phenyl)-3-methyl-1H-1,2,4-triazol-5(4H)-one] the figure was 50 to 250 nM; with `CCc1cc(-n2nc(C)n(Cc3cc(F)cc(F)c3)c2=O)ccc1-c1cn[nH]c1` [Example 108, 4-(3,5-difluorobenzyl)-1-(3-ethyl-4-(1H-pyrazol-4-yl)phenyl)-3-methyl-1H-1,2,4-triazol-5(4H)-one], 5 to 50 nM.
Consider `CCc1cc(-n2nc(C)n(C(C)c3ccccc3)c2=O)ccc1-c1cn[nH]c1` (centres unmarked) [Example 109, 1-(3-ethyl-4-(1H-pyrazol-4-yl)phenyl)-3-methyl-4-(1-phenylethyl)-1H-1,2,4-triazol-5(4H)-one], for which the IC50 fell in the range of 250 to 2000 nM.
With `CCc1cc(-n2nc(C)n(CCc3ccccc3)c2=O)ccc1-c1cn[nH]c1` [Example 110, 1-(3-ethyl-4-(1H-pyrazol-4-yl)phenyl)-3-methyl-4-phenethyl-1H-1,2,4-triazol-5(4H)-one] the figure was 250 to 2000 nM; with `CCc1cc(-n2nc(C)n(Cc3cccc(C#N)c3)c2=O)ccc1-c1cn[nH]c1` [Example 111, 3-((1-(3-ethyl-4-(1H-pyrazol-4-yl)phenyl)-3-methyl-5-oxo-1H-1,2,4-triazol-4(5H)-yl)methyl)benzonitrile], 250 to 2000 nM.
With `CCc1cc(-n2nc(C)n(Cc3cccc(OC(F)F)c3)c2=O)ccc1-c1cn[nH]c1` [Example 112, 4-(3-(difluoromethoxy)benzyl)-1-(3-ethyl-4-(1H-pyrazol-4-yl)phenyl)-3-methyl-1H-1,2,4-triazol-5(4H)-one] the figure was 50 to 250 nM.
To `CCc1cc(-n2nc(C)n(Cc3ccccc3F)c2=O)ccc1-c1cn[nH]c1` [Example 113, 1-(3-ethyl-4-(1H-pyrazol-4-yl)phenyl)-4-(2-fluorobenzyl)-3-methyl-1H-1,2,4-triazol-5(4H)-one] belongs 50 to 250 nM; to `CCc1cc(-n2nc(C)n(Cc3ccc(F)cc3)c2=O)ccc1-c1cn[nH]c1` [Example 114, 1-(3-ethyl-4-(1H-pyrazol-4-yl)phenyl)-4-(4-fluorobenzyl)-3-methyl-1H-1,2,4-triazol-5(4H)-one], 250 to 2000 nM.
`CCc1cc(-n2nc(C)n(Cc3cc(F)cc(OC)c3)c2=O)ccc1-c1cn[nH]c1` [Example 115, 1-(3-ethyl-4-(1H-pyrazol-4-yl)phenyl)-4-(3-fluoro-5-methoxybenzyl)-3-methyl-1H-1,2,4-triazol-5(4H)-one]: the IC50 lay within 5 to 50 nM.
To `CCc1cc(-n2nc(C)n(Cc3c(F)cccc3F)c2=O)ccc1-c1cn[nH]c1` [Example 116, 4-(2,6-difluorobenzyl)-1-(3-ethyl-4-(1H-pyrazol-4-yl)phenyl)-3-methyl-1H-1,2,4-triazol-5(4H)-one] belongs 250 to 2000 nM.
In turn, `CCc1cc(-n2nc(C)n(Cc3ccccc3)c2=O)ccc1-c1cn[nH]c1` [Example 117, 4-benzyl-1-(3-ethyl-4-(1H-pyrazol-4-yl)phenyl)-3-methyl-1H-1,2,4-triazol-5(4H)-one] registered an IC50 of 5 to 50 nM.
On to `COc1cc(Cn2c(C)nn(-c3ccc(-c4cn[nH]c4)cc3)c2=O)cc(OC)c1` [Example 120, 1-(4-(1H-pyrazol-4-yl)phenyl)-4-(3,5-dimethoxybenzyl)-3-methyl-1H-1,2,4-triazol-5(4H)-one], for which the IC50 was in the range of 250 to 2000 nM.
To `COc1cc(Cn2c(C)nn(-c3ccc(-c4cn[nH]c4)cc3)c2=O)ccc1F` [Example 121, 1-(4-(1H-pyrazol-4-yl)phenyl)-4-(4-fluoro-3-methoxybenzyl)-3-methyl-1H-1,2,4-triazol-5(4H)-one] belongs under 5 nM; to `COc1cccc(Cn2c(C)nn(-c3ccc(-c4cn[nH]c4)cc3)c2=O)c1F` [Example 122, 1-(4-(1H-pyrazol-4-yl)phenyl)-4-(2-fluoro-3-methoxybenzyl)-3-methyl-1H-1,2,4-triazol-5(4H)-one], 250 to 2000 nM; to `COc1ccc(F)cc1Cn1c(C)nn(-c2ccc(-c3cn[nH]c3)cc2)c1=O` [Example 123, 1-(4-(1H-pyrazol-4-yl)phenyl)-4-(5-fluoro-2-methoxybenzyl)-3-methyl-1H-1,2,4-triazol-5(4H)-one], 50 to 250 nM.
With `COc1ccc(Cn2c(C)nn(-c3ccc(-c4cn[nH]c4)cc3)c2=O)cc1F` [Example 124, 1-(4-(1H-pyrazol-4-yl)phenyl)-4-(3-fluoro-4-methoxybenzyl)-3-methyl-1H-1,2,4-triazol-5(4H)-one] the figure was 250 to 2000 nM; with `COc1cccc(Cn2c(CO)nn(-c3ccc(-c4cn[nH]c4)cc3)c2=O)c1` [Example 125, 1-(4-(1H-pyrazol-4-yl)phenyl)-3-(hydroxymethyl)-4-(3-methoxybenzyl)-1H-1,2,4-triazol-5(4H)-one], under 5 nM; with `O=c1n(-c2ccc(-c3cn[nH]c3)cc2)nc(CO)n1Cc1ccccc1` [Example 126, 1-(4-(1H-pyrazol-4-yl)phenyl)-4-benzyl-3-(hydroxymethyl)-1H-1,2,4-triazol-5(4H)-one], 5 to 50 nM.
With `COc1cc(Cn2c(CO)nn(-c3ccc(-c4cn[nH]c4)cc3)c2=O)cc(OC)c1` [Example 127, 1-(4-(1H-pyrazol-4-yl)phenyl)-4-(3,5-dimethoxybenzyl)-3-(hydroxymethyl)-1H-1,2,4-triazol-5(4H)-one] the figure was 50 to 250 nM.
On to `O=c1n(-c2ccc(-c3cn[nH]c3)cc2)nc(CO)n1Cc1cccc(F)c1` [Example 128, 1-(4-(1H-pyrazol-4-yl)phenyl)-4-(3-fluorobenzyl)-3-(hydroxymethyl)-1H-1,2,4-triazol-5(4H)-one], for which the half-inhibitory concentration (IC50) fell in the range of 5 to 50 nM.
With `O=c1n(-c2ccc(-c3cn[nH]c3)cc2)nc(CO)n1Cc1cc(F)ccc1F` [Example 129, 1-(4-(1H-pyrazol-4-yl)phenyl)-4-(2,5-difluorobenzyl)-3-(hydroxymethyl)-1H-1,2,4-triazol-5(4H)-one] the figure was 5 to 50 nM; with `O=c1n(-c2ccc(-c3cn[nH]c3)cc2)nc(CO)n1Cc1cc(F)cc(F)c1` [Example 130, 1-(4-(1H-pyrazol-4-yl)phenyl)-4-(3,5-difluorobenzyl)-3-(hydroxymethyl)-1H-1,2,4-triazol-5(4H)-one], 5 to 50 nM.
For `O=c1n(-c2ccc(-c3cn[nH]c3)cc2)nc(CO)n1Cc1cccc(OC(F)F)c1` [Example 131, 1-(4-(1H-pyrazol-4-yl)phenyl)-4-(3-(difluoromethoxy)benzyl)-3-(hydroxymethyl)-1H-1,2,4-triazol-5(4H)-one], the IC50 fell in the range of 5 to 50 nM.
With `N#Cc1cccc(Cn2c(CO)nn(-c3ccc(-c4cn[nH]c4)cc3)c2=O)c1` [Example 132, 3-((1-(4-(1H-pyrazol-4-yl)phenyl)-3-(hydroxymethyl)-5-oxo-1H-1,2,4-triazol-4(5H)-yl)methyl)benzonitrile] the figure was 50 to 250 nM.
To `CC(C)(O)c1nn(-c2ccc(-c3cn[nH]c3)cc2)c(=O)n1Cc1ccccc1` [Example 133, 1-(4-(1H-pyrazol-4-yl)phenyl)-4-benzyl-3-(2-hydroxypropan-2-yl)-1H-1,2,4-triazol-5(4H)-one] belongs 5 to 50 nM.
To `COc1cccc(Cn2c(C(C)(C)O)nn(-c3ccc(-c4cn[nH]c4)cc3)c2=O)c1` [Example 134, 1-(4-(1H-pyrazol-4-yl)phenyl)-3-(2-hydroxypropan-2-yl)-4-(3-methoxybenzyl)-1H-1,2,4-triazol-5(4H)-one] belongs under 5 nM.
`CC(C)(O)c1nn(-c2ccc(-c3cn[nH]c3)cc2)c(=O)n1Cc1cccc(F)c1` [Example 135, 1-(4-(1H-pyrazol-4-yl)phenyl)-4-(3-fluorobenzyl)-3-(2-hydroxypropan-2-yl)-1H-1,2,4-triazol-5(4H)-one] yielded an IC50 of 5 to 50 nM.
Take `CC(C)(O)c1nn(-c2ccc(-c3cn[nH]c3)cc2)c(=O)n1Cc1cc(F)ccc1F` [Example 136, 1-(4-(1H-pyrazol-4-yl)phenyl)-4-(2,5-difluorobenzyl)-3-(2-hydroxypropan-2-yl)-1H-1,2,4-triazol-5(4H)-one]: the IC50 is 50 to 250 nM.
With `CC(C)(O)c1nn(-c2ccc(-c3cn[nH]c3)cc2)c(=O)n1Cc1cc(F)cc(F)c1` [Example 137, 1-(4-(1H-pyrazol-4-yl)phenyl)-4-(3,5-difluorobenzyl)-3-(2-hydroxypropan-2-yl)-1H-1,2,4-triazol-5(4H)-one] the figure was 5 to 50 nM.
To `CC(C)(O)c1nn(-c2ccc(-c3cn[nH]c3)cc2)c(=O)n1Cc1c(F)cccc1F` [Example 138, 1-(4-(1H-pyrazol-4-yl)phenyl)-4-(2,6-difluorobenzyl)-3-(2-hydroxypropan-2-yl)-1H-1,2,4-triazol-5(4H)-one] belongs 50 to 250 nM.
With `CC(C)(O)c1nn(-c2ccc(-c3cn[nH]c3)cc2)c(=O)n1Cc1cccc(OC(F)F)c1` [Example 139, 1-(4-(1H-pyrazol-4-yl)phenyl)-4-(3-(difluoromethoxy)benzyl)-3-(2-hydroxypropan-2-yl)-1H-1,2,4-triazol-5(4H)-one] the figure was 50 to 250 nM; with `COc1cccc(Cn2c(CN(C)C)nn(-c3ccc(-c4cn[nH]c4)cc3)c2=O)c1` [Example 142, 1-(4-(1H-pyrazol-4-yl)phenyl)-3-((dimethylamino)methyl)-4-(3-methoxybenzyl)-1H-1,2,4-triazol-5(4H)-one], 5 to 50 nM.
